From patent US20220242879A1, “FUSED HETEROCYCLE DERIVATIVES” (Janssen Sciences Ireland Unlimited Company, priority 2019, published 2022) come the findings set out here.

The test system of one series is HBV. Description: Anti-HBV activity, HepG2.117 cell line, intracellular HBV DNA by real-time PCR. It counts as cell-based, Hepatitis B virus. To be noted: Hepatitis B virus, read-out: HBV-AVE-HepG2.117 EC50. How it is done:
The anti HBV activity was measured using the HepG2.117 cell line, a stable, inducibly HBV producing cell line, which replicates HBV in the absence of doxicycline (Tet-off system). The HepG2 cell line is available from ATCC® under number HB-8065. Transfection of the HepG2 cell line can be as described in Sun and Nassal 2006 Journal of Hepatology 45 (2006) 636-645 “Stable HepG2- and Huh7-based human hepatoma cell lines for efficient regulated expression of infectious hepatitis B virus”.
For the antiviral assay, HBV replication was induced, followed by a treatment with serially diluted compound in 96-well plates. After 3 days of treatment, the antiviral activity was determined by, quantification of intracellular HBV DNA using real-time PCR and an HBV specific primer set and probe.

A short description of series [1]: Cytotoxicity, ATPlite Luminescence Assay. It counts as cell-based, human. To be noted: human, mean value, cells incubated for 3 days, viability by ATPlite, read-out: TOX-HepC2.117 CC50. How it is done:
Cytotoxicity of the compounds was tested using HepG2 or HepG2.117 cells, incubated for 3 days in the presence of compounds. The viability of the cells was assessed using the PERKIN ELMER ATPlite Luminescence Assay System.”

Where [2] appears, read: 72 h, mean value, HepG2.117 cells, 3 days of treatment, intracellular HBV DNA.

By EC50 is commonly meant the midpoint of the concentration-response curve. For orientation: CC50 means the concentration giving 50% cytotoxicity.

Where two headings read alike, the source gives them in different places.

As to `CCc1onc2c1CCn1nc3c(c1-2)CN(C(=O)c1ccc(Cl)c(Cl)c1)CC3` [Compound 3, (3,4-dichlorophenyl)(3-ethyl-4,5,8,9-tetrahydro[1,2]oxazolo[3,4-c]pyrazolo[1,5-a:4,3-c′]dipyridin-10(11H)-yl)methanone], the EC50 in the series on HBV (setting [2]) is 1.44 µM. Besides, in series [1] (HepG2.117 cells), the CC50 at 3 days is 47 µM.

Turning to `O=C(c1ccc(Cl)c(Cl)c1)N1CCc2nn3c(c2C1)-c1ncsc1CCC3` [Compound 46, (3,4-Dichlorophenyl)(4,5,6,9,10,12-hexahydro-11H-pyrido[4′,3′:3,4]pyrazolo[1,5-a][1,3]-thiazolo[4,5-c]azepin-11-yl)methanone], the EC50 with HBV (setting [2]) is 0.236 µM. Besides, the CC50 at 3 days in series [1] (HepG2.117 cells) was 27.1 µM.

With `O=C(c1ccc(Cl)c(Cl)c1)N1CCc2nn3c(c2C1)-c1nocc1CC(C(=O)N1CCOCC1)C3` (centres unmarked) [Compound 38, [1-(3,4-Dichlorobenzoyl)-5,6,9,10,11,12-hexahydro-4H-[1,2]oxazolo[3,4-c]pyrido[4′,3′:3,4]-pyrazolo[1,5-a]azepin-5-yl](morpholin-4-yl)methanone], the EC50 in the series on HBV (setting [2]) stood at 1.44 µM. The CC50 at 3 days in series [1] (HepG2.117 cells) is over 50 µM.

Consider `C=C1Cc2c(noc2N(C)C)-c2c3c(nn2C1)CCN(C(=O)c1ccc(Cl)c(Cl)c1)C3` [Compound 26, (3,4-Dichlorophenyl)[3-(dimethylamino)-5-methylidene-5,6,9,10-tetrahydro-4H-[1,2]oxazolo-[3,4-c]pyrido[4′,3′:3,4]pyrazolo[1,5-a]azepin-11(12H)-yl]methanone], for which the EC50 in the series with HBV (setting [2]) is 1.15 µM. Also, the CC50 at 3 days in series [1] (HepG2.117 cells) is over 50 µM.

Consider `CNC(=O)[C@@H]1Cc2conc2-c2c3c(nn2C1)CCN(C(=O)c1ccc(Cl)c(Cl)c1)C3` (single isomer, unassigned) [Compound 30, (5′R)-11-(3,4-Dichlorobenzoyl)-N-methyl-5,6,9,10,11,12-hexahydro-4H-[1,2]oxazolo[3,4-c]-pyrido[4′,3′:3,4]pyrazolo[1,5-a]azepine-5-carboxamide], for which the EC50 with HBV (setting [2]) came to 0.181 µM. For the same compound, in series [1] (HepG2.117 cells), the CC50 at 3 days was over 50 µM.

`O=C(c1ccc(Cl)c(Cl)c1)N1CCc2nn3c(c2C1)-c1n[nH]cc1CC(CO)C3` (centres unmarked) [Compound 43, (3,4-Dichlorophenyl)[5-(hydroxymethyl)-2,5,6,9,10,12-hexahydropyrazolo[3,4-c]pyrido-[4′,3′:3,4]pyrazolo[1,5-a]azepin-11(41)-yl]methanone]: the EC50 in the series with HBV (setting [2]) was 2.32 µM. The CC50 at 3 days in series [1] (HepG2.117 cells) was over 50 µM.

Turning to `C[C@@H]1Cc2nn3c(c2CN1C(=O)c1ccc(Cl)c(Cl)c1)-c1nocc1CCC3` [Compound 14, (3,4-dichlorophenyl)[(10R)-10-methyl-5,6,9,10-tetrahydro-4H-[1,2]oxazolo-[3,4-c]pyrido[4′,3′:3,4]pyrazolo[1,5-a]azepin-11(12H)-yl]methanone], the EC50 with HBV (setting [2]) is 0.213 µM. Further, the CC50 at 3 days in series [1] (HepG2.117 cells) was found to be 39.2 µM.

`C=C1Cc2conc2-c2c3c(nn2C1)CCN(C(=O)c1ccc(Cl)c(Cl)c1)C3` [Compound 17, (3,4-Dichlorophenyl)(5-methylidene-5,6,9,10-tetrahydro-4H-[1.2]oxazolo[3,4-c]pyrido-[4′,3′:3,4]pyrazolo[1,5-a]azepin-11(12H)-yl)methanone]: the EC50 in the series on HBV (setting [2]) stood at 0.248 µM. For the same compound, in series [1] (HepG2.117 cells), the CC50 at 3 days is 24.7 µM.

For the compound `O=C(c1cnc(Cl)c(Cl)c1)N1CCc2nn3c(c2C1)-c1nocc1CC(O)C3` (centres unmarked) [Compound 53], the EC50 with HBV (setting [2]) is over 10 µM. For the same compound, in series [1] (HepG2.117 cells), the CC50 at 3 days was over 50 µM.

For the compound `Cc1nc2c(s1)CCn1nc3c(c1-2)CN(C(=O)c1ccc(Cl)c(Cl)c1)CC3` [Compound 10, (3,4-Dichlorophenyl)(2-methyl-4,8,9,11-tetrahydro[1,3]thiazolo[4,5-c]pyrazolo[1,5-a:4,3-c′]-dipyridin-10(5H)-yl)methanone], in the series with HBV (setting [2]), the EC50 was 8.06 µM. The CC50 at 3 days in series [1] (HepG2.117 cells) was over 10 µM.

With `O=C(c1ccc(Cl)c(Cl)c1)N1CCc2nn3c(c2C1)-c1noc(C(F)(F)F)c1CCC3` [Compound 16, (3,4-Dichlorophenyl)[3-(trifluoromethyl)-5,6,9,10-tetrahydro-4H-[1,2]oxazolo[3,4-c]pyrido[4′,3′:3,4]pyrazolo[1,5-a]azepin-11(12H)-yl]methanone], the EC50 in the series with HBV (setting [2]) was found to be 1.62 µM. The CC50 at 3 days in series [1] (HepG2.117 cells) is over 50 µM.

Consider `O=C(NCCO)C1Cc2conc2-c2c3c(nn2C1)CCN(C(=O)c1ccc(Cl)c(Cl)c1)C3` (centres unmarked) [Compound 34, 11-(3,4-Dichlorobenzoyl)-N-(2-hydroxyethyl)-5,6,9,10,11,12-hexahydro-4H-[1,2]oxazolo-[3,4-c]pyrido[4′,3′:3,4]pyrazolo[1,5-a]azepine-5-carboxamide], for which the EC50 in the series with HBV (setting [2]) is 0.358 µM. Moreover, in series [1] (HepG2.117 cells), the CC50 at 3 days is over 50 µM.

On to `CNC(=O)[C@@H]1Cc2conc2-c2c3c(nn2C1)CCN(C(=O)c1ccc(Cl)c(Cl)c1)[C@@H]3C` (single isomer, unassigned) [Compound 49], for which the EC50 with HBV (setting [2]) was determined as 4.64 µM. In series [1] (HepG2.117 cells), the CC50 at 3 days was over 50 µM.

In the case of `COC1Cc2conc2-c2c3c(nn2C1)CCN(C(=O)c1ccc(Cl)c(Cl)c1)C3` (centres unmarked) [Compound 20, (3,4-Dichlorophenyl)(5-methoxy-5,6,9,10-tetrahydro-4H-isoxazolo[3,4-c]pyrido[4′,3′:3,4]-pyrazolo[1,5-a]azepin-11(12H)-yl)methanone], in the series with HBV (setting [2]), the EC50 amounted to 0.3 µM. The CC50 at 3 days in series [1] (HepG2.117 cells) was over 50 µM.

Take `Cn1cc2c(n1)-c1c3c(nn1CC2)CCN(C(=O)c1ccc(Cl)c(Cl)c1)C3` [Compound 8, (3,4-Dichlorophenyl)(2-methyl-2,4,5,8,9,11-hexahydro-10H-pyrazolo[3,4-c]pyrazolo-[1,5-a:4,3-c]dipyridin-10-yl)methanone]: the EC50 in the series on HBV (setting [2]) is 2.55 µM. In addition, in series [1] (HepG2.117 cells), the CC50 at 3 days was over 50 µM.

Take `Cn1cc2c(n1)-c1c3c(nn1CCC2)CCN(C(=O)c1ccc(Cl)c(Cl)c1)C3` [Compound 42, (3,4-Dichlorophenyl)(2-methyl-2,5,6,9,10,12-hexahydropyrazolo[3,4-c]pyrido[4′,3′:3,4]-pyrazolo[1,5-a]azepin-11(4H)-yl)methanone]: in the series on HBV (setting [2]), the EC50 was over 48.8 µM. For the same compound, the CC50 at 3 days in series [1] (HepG2.117 cells) is over 50 µM.

On to `CCNC(=O)C1Cc2conc2-c2c3c(nn2C1)CCN(C(=O)c1ccc(Cl)c(Cl)c1)C3` (centres unmarked) [Compound 32, 11-(3,4-Dichlorobenzoyl)-N-ethyl-5,6,9,10,11,12-hexahydro-4H-[1,2]oxazolo[3,4-c]pyrido-[4′,3′:3,4]pyrazolo[1,5-a]azepine-5-carboxamide], for which the concentration for a half-maximal effect (EC50) in the series with HBV (setting [2]) was found to be 0.09 µM. The CC50 at 3 days in series [1] (HepG2.117 cells) was over 50 µM.

As to `O=C(O)C1Cc2conc2-c2c3c(nn2C1)CCN(C(=O)c1ccc(Cl)c(Cl)c1)C3` (centres unmarked) [Compound 29, 11-(3,4-Dichlorobenzoyl)-5,6,9,10,11,12-hexahydro-4H-[1,2]oxazolo[3,4-c]pyrido[4′,3′:3,4]-pyrazolo[1,5-a]azepine-5-carboxylic Acid], the EC50 in the series with HBV (setting [2]) stood at 15.5 µM. In addition, in series [1] (HepG2.117 cells), the CC50 at 3 days is over 50 µM.

Take `CNC(=O)[C@H]1Cc2conc2-c2c3c(nn2C1)C[C@@H](C)N(C(=O)c1ccc(Cl)c(Cl)c1)C3` (single isomer, unassigned) [Compound 48]: the EC50 in the series on HBV (setting [2]) is 0.019 µM. Further, the CC50 at 3 days in series [1] (HepG2.117 cells) was over 50 µM.

On to `Nc1nc2c(s1)CCCn1nc3c(c1-2)CN(C(=O)c1ccc(Cl)c(Cl)c1)CC3` [Compound 51, (2-amino-4,5,6,9,10,12-hexahydro-11H-pyrido[4′,3′:3,4]pyrazolo[1,5-a]thiazolo[4,5-c]azepin-11-yl)(3,4-dichlorophenyl)methanone], for which the EC50 with HBV (setting [2]) was over 10 µM. For the same compound, the CC50 at 3 days in series [1] (HepG2.117 cells) is over 50 µM.

With `O=C(NC1CC1)C1Cc2conc2-c2c3c(nn2C1)CCN(C(=O)c1ccc(Cl)c(Cl)c1)C3` (centres unmarked) [Compound 33, N-Cyclopropyl-11-(3,4-dichlorobenzoyl)-5,6,9,10,11,12-hexahydro-4H-[1,2]oxazolo[3,4-c]-pyrido[4′,3′:3,4]pyrazolo[1,5-a]azepine-5-carboxamide], the EC50 with HBV (HepG2.117, 72 h) is 0.154 µM. The CC50 at 3 days in series [1] is over 50 µM.

As to `O=C(c1ccc(Cl)c(Cl)c1)N1CCc2nn3c(c2C1)-c1nocc1CC(CO)C3` (centres unmarked) [Compound 27], the EC50 in the series with HBV (setting [2]) was 0.393 µM. The CC50 at 3 days in series [1] (HepG2.117 cells) was over 50 µM.

In the case of `Cc1onc2c1CCCn1nc3c(c1-2)CN(C(=O)c1ccc(Cl)c(Cl)c1)[C@H](C)C3` [Compound 15, (3,4-dichlorophenyl)[(10R)-3,10-dimethyl-5,6,9,10-tetrahydro-4H-[1,2]oxazolo-[3,4-c]pyrido[4′,3′:3,4]pyrazolo[1,5-a]azepin-11(12H)-yl]methanone], the EC50 in the series on HBV (setting [2]) stood at 0.934 µM. In addition, the CC50 at 3 days in series [1] (HepG2.117 cells) was over 43.5 µM.

`O=C(c1ccc(Cl)c(Cl)c1)N1CCc2nn3c(c2C1)-c1nocc1CCC3` [Compound 11]: the EC50 with HBV (setting [2]) stood at 0.3 µM. Also, the CC50 at 3 days in series [1] (HepG2.117 cells) was over 46.2 µM.

Turning to `Cc1onc2c1CCCn1nc3c(c1-2)CN(C(=O)c1ccc(Cl)c(Cl)c1)CC3` [Compound 12, (3,4-Dichlorophenyl)(3-methyl-5,6,9,10-tetrahydro-4H-[1,2]oxazolo[3,4-c]pyrido[4′,3′:3,4]-pyrazolo[1,5-a]azepin-11(12H)-yl)methanone], the EC50 in the series on HBV (setting [2]) came to 0.835 µM. In addition, the CC50 at 3 days in series [1] (HepG2.117 cells) is 31.1 µM.
